The nature of the data set: recombinant barcode read abundance after kanamycin selection (control-corrected) (log10(CPM+1)); higher = more efficient recombination; sequences stand for … in AGTGCAGAGAAAATCGGCCAGTTTTCTCTGCCTGCAGTCCGCATGCCGT…AGATTTATGCAGCGGACTGCCTTTCTCCCAAAGTGATAAACCGGACAGTATCATGGACCGGTTTTCCCGGTAATCCGTATTTGCAAGGTTGGTTTCACT; site = the 11-nt target. The gist of the method: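 Pooled oligos, each joining a target to an IS621 bridge RNA target-binding loop, were cloned and co-electroporated with a donor plasmid into E. coli. Selective plates carried chloramphenicol/ampicillin/kanamycin and 0.1 mM IPTG, while chloramphenicol/ampicillin LB agar served as control, with two replicates of each. Recombination efficiency rests on averaged, control-corrected counts per million of barcodes at recombinant junctions, shown as log10(CPM+1).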
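Further: IS621 recombinase and bridge RNA in Escherichia coli cells.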

Take “CATTATCCTTGGGTTCTAACCTGTTGCGT (site CATTGTCCTAC)”: the “recombinant barcode read abundance (log10)” value turned out to be 0.0752.

In the case of “CATTCCTCTTGGGTTCTAACCTGTTGCCT (site CATTCCTCTAG)”, the “recombinant barcode read abundance (log10)” value turned out to be 0.0779.

As for “CATTCCTCTTGGGTTCTAACCTGTTGCCT (site CCTTCCTCTAG)”, the “recombinant barcode read abundance (log10)” value amounted to 0.122.

“CATTCCTCTTGGGTTCTAACCTGTTGCCT (site CGTTCCTCTAG)”: the “recombinant barcode read abundance (log10)” value was found to be 0.0677.

As to “CATTCCTCTTGGGTTCTAACCTGTTGCCT (site CTTTCCTCTAG)”, the “recombinant barcode read abundance (log10)” value is 0.0613.

For the sequence “CATTCGCCTTGGGTTCTAACCTGTTGCGT (site CATTCGCCTAC)”, the “recombinant barcode read abundance (log10)” value was 0.329.

As to “CATTCGCCTTGGGTTCTAACCTGTTGCGT (site TGGCTAGCTGT)”, the “recombinant barcode read abundance (log10)” value worked out at 0.138.

On to “CATTGCCCTTGGGTTCTAACCTGTTGCCT (site CATTGCCCTAG)”, for which the “recombinant barcode read abundance (log10)” value came out at 0.234.

As for “CATTGCCCTTGGGTTCTAACCTGTTGCCT (site CCTTGCCCTAG)”, the “recombinant barcode read abundance (log10)” value is 0.2.

With “CATTGCCCTTGGGTTCTAACCTGTTGCCT (site CGTTGCCCTAG)”, the “recombinant barcode read abundance (log10)” value came to 0.242.

In the case of “CATTGCCCTTGGGTTCTAACCTGTTGCCT (site CTTTGCCCTAG)”, the “recombinant barcode read abundance (log10)” value came to 0.0205.

Take “CATTGGACTTGGGTTCTAACCTGTTGCTT (site AATTGGACTAA)”: the “recombinant barcode read abundance (log10)” value amounted to 0.222.

On to “CATTGGACTTGGGTTCTAACCTGTTGCTT (site CATTGGACTAA)”, for which the “recombinant barcode read abundance (log10)” value is 0.371.

As for “CATTGGACTTGGGTTCTAACCTGTTGCTT (site GATTGGACTAA)”, the “recombinant barcode read abundance (log10)” value turned out to be 0.023.

Regarding “CATTGGACTTGGGTTCTAACCTGTTGCTT (site TATTGGACTAA)”, the “recombinant barcode read abundance (log10)” value stood at 0.111.

As for “CATTGTACTTGGGTTCTAACCTGTTGCTA (site CATCGGACTTA)”, the “recombinant barcode read abundance (log10)” value was determined as 0.104.

As to “CATTGTACTTGGGTTCTAACCTGTTGCTA (site CATTGTACTTA)”, the “recombinant barcode read abundance (log10)” value was found to be 0.457.

For the sequence “CCAAAGACTTGGGTTCTAACCTGTTGCAT (site CCAAAGACTAT)”, the “recombinant barcode read abundance (log10)” value came to 0.523.

In the case of “CCAAAGACTTGGGTTCTAACCTGTTGCAT (site CTAAAGACTGT)”, the “recombinant barcode read abundance (log10)” value turned out to be 0.334.

With “CCAACCGCTTGGGTTCTAACCTGTTGCCT (site CAAACCGCTAG)”, the “recombinant barcode read abundance (log10)” value amounted to 0.0169.

With “CCAACCGCTTGGGTTCTAACCTGTTGCCT (site CCAACCGCTAG)”, the “recombinant barcode read abundance (log10)” value is 0.423.

Regarding “CCAACCGCTTGGGTTCTAACCTGTTGCCT (site CGAACCGCTAG)”, the “recombinant barcode read abundance (log10)” value came out at 0.043.

On to “CCAACCGCTTGGGTTCTAACCTGTTGCCT (site CTAACCGCTAG)”, for which the “recombinant barcode read abundance (log10)” value came to 0.0644.

Take “CCAAGCCCTTGGGTTCTAACCTGTTGCCT (site CCAAGCACTAG)”: the “recombinant barcode read abundance (log10)” value was 0.202.

On to “CCAAGCCCTTGGGTTCTAACCTGTTGCCT (site CCAAGCCCTAG)”, for which the “recombinant barcode read abundance (log10)” value came out at 0.142.

As for “CCAAGCCCTTGGGTTCTAACCTGTTGCCT (site CCAAGCGCTAG)”, the “recombinant barcode read abundance (log10)” value amounted to 0.0593.

As for “CCAAGCCCTTGGGTTCTAACCTGTTGCCT (site CCAAGCTCTAG)”, the “recombinant barcode read abundance (log10)” value amounted to 0.0835.

Regarding “CCAAGGACTTGGGTTCTAACCTGTTGCCT (site CCAAGGACTAG)”, the “recombinant barcode read abundance (log10)” value is 0.348.

For “CCAAGGACTTGGGTTCTAACCTGTTGCCT (site CCACGGACTAG)”, the “recombinant barcode read abundance (log10)” value stood at 0.0394.

For the sequence “CCAAGGACTTGGGTTCTAACCTGTTGCCT (site CCAGGGACTAG)”, the “recombinant barcode read abundance (log10)” value is 0.47.

Regarding “CCAAGGACTTGGGTTCTAACCTGTTGCCT (site CCATGGACTAG)”, the “recombinant barcode read abundance (log10)” value is 0.0382.

For “CCAAGGGCTTGGGTTCTAACCTGTTGCTG (site CCAAGGGCTCA)”, the “recombinant barcode read abundance (log10)” value turned out to be 1.31.

As for “CCAAGGGCTTGGGTTCTAACCTGTTGCTG (site CCAAGGGCTCC)”, the “recombinant barcode read abundance (log10)” value came to 0.136.

“CCAAGGGCTTGGGTTCTAACCTGTTGCTG (site CCAAGGGCTCG)”: the “recombinant barcode read abundance (log10)” value stood at 0.0611.

Consider “CCAAGGGCTTGGGTTCTAACCTGTTGCTG (site CCAAGGGCTCT)”, for which the “recombinant barcode read abundance (log10)” value is 0.727.

“CCACAGTCTTGGGTTCTAACCTGTTGCCT (site CCACAGTCTAG)”: the “recombinant barcode read abundance (log10)” value was determined as 1.44.

Take “CCACAGTCTTGGGTTCTAACCTGTTGCCT (site CCACCGTCTAG)”: the “recombinant barcode read abundance (log10)” value was 0.117.

For “CCACAGTCTTGGGTTCTAACCTGTTGCCT (site CCACGGTCTAG)”, the “recombinant barcode read abundance (log10)” value amounted to 0.169.

“CCACAGTCTTGGGTTCTAACCTGTTGCCT (site CCACTGTCTAG)”: the “recombinant barcode read abundance (log10)” value came out at 0.0628.

In the case of “CCACGAGCTTGGGTTCTAACCTGTTGCGG (site CCACGAGCTCC)”, the “recombinant barcode read abundance (log10)” value was 1.4.

On to “CCACGAGCTTGGGTTCTAACCTGTTGCGG (site CGACGAGCTCC)”, for which the “recombinant barcode read abundance (log10)” value is 0.148.

Regarding “CCACGGCCTTGGGTTCTAACCTGTTGCAT (site CCACGGCCTAT)”, the “recombinant barcode read abundance (log10)” value came to 1.21.

For the sequence “CCACGGCCTTGGGTTCTAACCTGTTGCAT (site CCTCGGCCTAT)”, the “recombinant barcode read abundance (log10)” value worked out at 0.

As for “CCACTACCTTGGGTTCTAACCTGTTGCCT (site CCACTACCTAG)”, the “recombinant barcode read abundance (log10)” value was 0.253.

As for “CCACTACCTTGGGTTCTAACCTGTTGCCT (site CCACTCCCTAG)”, the “recombinant barcode read abundance (log10)” value amounted to 0.0236.

In the case of “CCACTACCTTGGGTTCTAACCTGTTGCCT (site CCACTGCCTAG)”, the “recombinant barcode read abundance (log10)” value was found to be 0.0373.

As for “CCACTACCTTGGGTTCTAACCTGTTGCCT (site CCACTTCCTAG)”, the “recombinant barcode read abundance (log10)” value was 0.0936.

As to “CCACTGTCTTGGGTTCTAACCTGTTGCCT (site CCACAGTCTAG)”, the “recombinant barcode read abundance (log10)” value stood at 0.806.

On to “CCACTGTCTTGGGTTCTAACCTGTTGCCT (site CCACCGTCTAG)”, for which the “recombinant barcode read abundance (log10)” value stood at 0.0386.

Consider “CCACTGTCTTGGGTTCTAACCTGTTGCCT (site CCACGGTCTAG)”, for which the “recombinant barcode read abundance (log10)” value amounted to 0.0729.

On to “CCACTGTCTTGGGTTCTAACCTGTTGCCT (site CCACTGTCTAG)”, for which the “recombinant barcode read abundance (log10)” value came to 0.632.

Take “CCAGAGTCTTGGGTTCTAACCTGTTGCCA (site CCAGAGTCTCG)”: the “recombinant barcode read abundance (log10)” value is 0.

Consider “CCAGAGTCTTGGGTTCTAACCTGTTGCCA (site CCAGAGTCTTG)”, for which the “recombinant barcode read abundance (log10)” value was found to be 1.22.

As to “CCAGCAGCTTGGGTTCTAACCTGTTGCCT (site CCAGAAGCTAG)”, the “recombinant barcode read abundance (log10)” value was 0.0762.

For the sequence “CCAGCAGCTTGGGTTCTAACCTGTTGCCT (site CCAGCAGCTAG)”, the “recombinant barcode read abundance (log10)” value was 0.675.

For “CCAGCAGCTTGGGTTCTAACCTGTTGCCT (site CCAGGAGCTAG)”, the “recombinant barcode read abundance (log10)” value came out at 0.0858.

As for “CCAGCAGCTTGGGTTCTAACCTGTTGCCT (site CCAGTAGCTAG)”, the “recombinant barcode read abundance (log10)” value turned out to be 0.76.

For “CCAGGTCCTTGGGTTCTAACCTGTTGCGT (site CCAGGTCCTAC)”, the “recombinant barcode read abundance (log10)” value is 2.45.

As to “CCAGGTCCTTGGGTTCTAACCTGTTGCGT (site CCAGGTCCTAT)”, the “recombinant barcode read abundance (log10)” value worked out at 1.81.
